Test [1] addresses P70S6K (T412E mutant, Millipore) (Homo sapiens (Human), UniProt P23443, T412E). Kind of test: P70S6K enzyme assay. The class given is biochemical. As to conditions: 24 μM ATP, 90 min at 25° C. As to the method:
P70S6K inhibitor compounds were diluted and plated in 96 well plates. A reaction mixture including the following components was then added to the compound plate to initiate the enzyme reaction; P70S6K (3 nM, T412E mutant, Millipore) was mixed with 24 μM ATP in an assay buffer containing 100 mM Hepes (pH 7.5), 5 mM MgCl2, 1 mM DTT, 0.015% Brij and 1 μM of the substrate peptide FITC-AHA-AKRRRLSSLRA-OH (derived from the S6 ribosomal protein sequence, FITC=fluorescein isothiocyanate, AHA=6-aminohexanoic acid). The reaction was incubated for 90 min at 25° C., before the addition of 10 mM EDTA to stop the reaction. The proportion of substrate and product (phosphorylated) peptide was analysed on a Caliper Life Sciences Lab Chip 3000, using a pressure of −1.4 psi, and upstream and downstream voltages of −3000 and −700 respectively. Product peaks were resolved before substrate peaks on the resulting chromatograms.

A further test addresses His-AKT (Full Length) (Homo sapiens (Human), UniProt P31749). Kind of test: AKT enzyme assay. The class given is biochemical. The following applies: 160 uM ATP, 90 min at 25° C. How it is done:
A TTP Mosquito liquid handling instrument was used to place 125 nl of the appropriate concentration of inhibitor in 100% DMSO (for a dose response curve calculation) into each well of a 384-well plate. To this reaction components were added to a final volume of 12.5 μl: • 0.1 ng/μl His-AKT (Full Length), (Invitrogen, Part # P2999, Lot #641228C). • 160 uM ATP (Fluka, 02055) • 1 mM DTT (Sigma, D0632) • 1 mM MgCl2 (Sigma, M1028) • 1 μM substrate peptide (sequence FITC-AHA-GRPRTSSFAEG-NH2), • synthesized by Tufts Peptide Synthesis service. • 100 mM HEPES pH 7.5 (Calbiochem, 391338) • 0.015% Brij-35 (Sigma, B4184)
The reaction was incubated for 90 min at 25° C., and then stopped by the addition of 70 μl of Stop buffer (100 mM HEPES pH 7.5, 0.015% Brij-35, 10 mM EDTA (Sigma, E7889)).
The plate was read on a Caliper LC 3000 in an Off-Chip mobility shift assay format, using the following parameters for a 12-sipper chip: screening pressure −2.3 psi, upstream voltage −500, and downstream voltage −3000. These conditions caused unphosphorylated substrate and phosphorylated product peptide to resolve as separate peaks allowing direct measurement of percentage of conversion of substrate to product. The percent conversion was plotted against concentration of inhibitor to produce a sigmoidal dose response curve, from which an IC50 was calculated.

Sequence of P70S6K (T412E mutant, Millipore) (P23443 whole entry T412E): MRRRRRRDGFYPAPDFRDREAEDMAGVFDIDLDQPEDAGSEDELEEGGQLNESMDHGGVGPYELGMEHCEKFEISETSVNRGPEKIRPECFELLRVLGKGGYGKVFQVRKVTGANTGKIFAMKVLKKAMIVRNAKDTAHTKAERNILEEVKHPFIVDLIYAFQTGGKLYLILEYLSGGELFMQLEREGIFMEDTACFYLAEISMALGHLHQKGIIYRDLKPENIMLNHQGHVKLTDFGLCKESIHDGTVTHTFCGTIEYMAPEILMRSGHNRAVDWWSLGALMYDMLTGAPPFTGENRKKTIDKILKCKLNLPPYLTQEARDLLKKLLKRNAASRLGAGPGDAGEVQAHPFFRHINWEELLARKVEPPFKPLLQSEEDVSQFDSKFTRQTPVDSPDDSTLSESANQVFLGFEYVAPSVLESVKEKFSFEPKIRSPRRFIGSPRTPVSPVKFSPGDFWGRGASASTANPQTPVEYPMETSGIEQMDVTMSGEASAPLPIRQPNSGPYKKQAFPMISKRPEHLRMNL
Sequence of His-AKT (Full Length) (P31749 whole entry): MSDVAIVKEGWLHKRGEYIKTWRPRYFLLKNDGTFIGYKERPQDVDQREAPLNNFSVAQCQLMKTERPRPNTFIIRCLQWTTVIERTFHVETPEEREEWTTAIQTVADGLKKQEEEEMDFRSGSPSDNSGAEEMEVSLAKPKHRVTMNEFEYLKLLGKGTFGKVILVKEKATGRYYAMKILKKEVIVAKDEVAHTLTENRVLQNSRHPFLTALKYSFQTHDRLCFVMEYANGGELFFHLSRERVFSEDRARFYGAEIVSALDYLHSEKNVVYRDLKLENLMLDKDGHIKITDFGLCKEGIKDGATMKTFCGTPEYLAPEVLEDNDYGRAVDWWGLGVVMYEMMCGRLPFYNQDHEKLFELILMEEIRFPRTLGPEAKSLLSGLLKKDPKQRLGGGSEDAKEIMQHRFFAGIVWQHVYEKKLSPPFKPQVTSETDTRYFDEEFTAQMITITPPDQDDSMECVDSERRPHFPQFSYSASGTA

Take `NCC(c1ccc(C(F)(F)F)cc1)C1CCN(c2ccnc3c2CCCN3)CC1` (centres unmarked) [Compound A1, 2-(1-(5,6,7,8-tetrahydro-1,8-naphthyridin-4-yl)piperidin-4-yl)-2-(4-(trifluoromethyl)phenyl)ethanamine]: the values for the IC50 (in test [1]; at His-AKT (Full Length)) were 25 to 100 nM and 101 to 500 nM, respectively.

Regarding `NCC(c1ccc(C(F)(F)F)cc1)C1CCN(c2ccnc3c2CCN3)CC1` (centres unmarked) [Compound A2, 2-(1-(2,3-dihydro-1H-pyrrolo[2,3-b]pyridin-4-yl)piperidin-4-yl)-2-(4-(trifluoro-methyl)phenyl)ethanamine], the IC50 (in test [1]; at His-AKT (Full Length)) was 25 to 100 nM each time.

Regarding `NCC(c1ccc(C(F)(F)F)cc1)C1CCN(c2ccnc3c2CCC3)CC1` (centres unmarked) [Compound A3, 2-(1-(6,7-dihydro-5H-cyclopenta[b]pyridin-4-yl)piperidin-4-yl)-2-(4-(trifluoromethyl)phenyl)ethanamine], the IC50 (in test [1]; at His-AKT (Full Length)) was more than 1000 nM in each case.

On to `CN(C)CC(c1ccc(Cl)cc1)N1CCN(c2ncnc3c2OCCN3)CC1` (centres unmarked) [Compound A4, {2-(4-Chlorophenyl)-2-[4-(7,8-dihydro-6H-pyrimido[5,4-b][1,4]oxazin-4-yl)-piperazin-1-yl]-ethyl}-dimethylamine], for which the IC50 was more than 1000 nM in test [1] and 101 to 500 nM against His-AKT (Full Length).

Turning to `CN(C)CC(c1ccc(C(F)(F)F)cc1)N1CCN(c2ncnc3c2OCCN3)CC1` (centres unmarked) [Compound A5, [2-[4-(7,8-Dihydro-6H-pyrimido[5,4-b][1,4]oxazin-4-yl)-piperazin-1-yl]-2-(4-trifluoromethylphenyl)-ethyl]-dimethylamine], the IC50 in test [1] is more than 1000 nM; at His-AKT (Full Length), 101 to 500 nM.

Consider `CN(C)CC(c1ccc(C(F)(F)F)cc1)N1CCN(c2ncnc3c2CCN3)CC1` (centres unmarked) [Compound A6, [2-[4-(6,7-Dihydro-5H-pyrrolo[2,3-d]pyrimidin-4-yl)-piperazin-1-yl]-2-(4-trifluoromethylphenyl)-ethyl]-dimethylamine], for which the IC50 (in test [1]; on His-AKT (Full Length)) was 101 to 500 nM throughout.

As to `CN(C)CC(c1ccc(Cl)cc1)N1CCN(c2ncnc3c2CCN3)CC1` (centres unmarked) [Compound A7, {2-(4-Chlorophenyl)-2-[4-(6,7-dihydro-5H-pyrrolo[2,3-d]pyrimidin-4-yl)-piperazin-1-yl]-ethyl}-dimethylamine], the IC50 (in test [1]; at His-AKT (Full Length)) was 101 to 500 nM throughout.

For the compound `CN(C)CC(c1ccc(Cl)cc1)N1CCN(c2ncnc3c2CCCN3)CC1` (centres unmarked) [Compound A8, {2-(4-Chlorophenyl)-2-[4-(5,6,7,8-tetrahydro-pyrido[2,3-d]pyrimidin-4-yl)-piperazin-1-yl]-ethyl}-dimethylamine], the IC50 in test [1] fell in the range of 101 to 500 nM; against His-AKT (Full Length) it was 25 to 100 nM.

In the case of `CN(C)CC(c1ccc(C(F)(F)F)cc1)N1CCN(c2ncnc3c2CCCN3)CC1` (centres unmarked) [Compound A9, Dimethyl-[2-[4-(5,6,7,8-tetrahydro-pyrido[2,3-d]pyrimidin-4-yl)-piperazin-1-yl]-2-(4-trifluoromethyl-phenyl)-ethyl]-amine], the concentration for half-maximal inhibition (IC50) (in test [1]; at His-AKT (Full Length)) was 25 to 100 nM in each case.

For the compound `NCC(c1ccc(C(F)(F)F)cc1)N1CCN(c2ncnc3c2OCCN3)CC1` (centres unmarked) [Compound A10, 2-[4-(7,8-Dihydro-6H-pyrimido[5,4-b][1,4]oxazin-4-yl)-piperazin-1-yl]-2-(4-trifluoromethylphenyl)-ethylamine], the results for the IC50 (in test [1]; against His-AKT (Full Length)) were 501 to 1000 nM and 101 to 500 nM, respectively.

`NCC(c1ccc(Cl)cc1)N1CCN(c2ncnc3c2OCCN3)CC1` (centres unmarked) [Compound A11, 2-(4-Chlorophenyl)-2-[4-(7,8-dihydro-6H-pyrimido[5,4-b][1,4]oxazin-4-yl)-piperazin-1-yl]-ethylamine]: the IC50 in test [1] fell in the range of 501 to 1000 nM; against His-AKT (Full Length), 101 to 500 nM.

Regarding `CN(C)CC(c1ccc(C(F)(F)F)c(F)c1)N1CCN(c2ncnc3c2OCCN3)CC1` (centres unmarked) [Compound A12, [2-[4-(7,8-Dihydro-6H-pyrimido[5,4-b][1,4]oxazin-4-yl)-piperazin-1-yl]-2-(3-fluoro-4-trifluoromethylphenyl)-ethyl]-dimethylamine], the figures for the IC50 (in test [1]; at His-AKT (Full Length)) were 501 to 1000 nM and 101 to 500 nM, respectively.

For `NCC(c1ccc(Cl)cc1)N1CCN(c2ncnc3c2CCN3)CC1` (centres unmarked) [Compound A13, 2-(4-Chloro-phenyl)-2-[4-(6,7-dihydro-5H-pyrrolo[2,3-d]pyrimidin-4-yl)-piperazin-1-yl]-ethylamine], the half-inhibitory concentration (IC50) in test [1] lay in the range of 25 to 100 nM; against His-AKT (Full Length), 101 to 500 nM.

In the case of `NCC(c1ccc(F)cc1)N1CCN(c2ncnc3c2CCN3)CC1` (centres unmarked) [Compound A14, 2-[4-(6,7-Dihydro-5H-pyrrolo[2,3-d]pyrimidin-4-yl)-piperazin-1-yl]-2-(4-fluorophenyl)-ethylamine], the IC50 (in test [1]; at His-AKT (Full Length)) was 501 to 1000 nM throughout.

As for `CN(C)CC(c1ccc(Cl)c(F)c1)N1CCN(c2ncnc3c2CCN3)CC1` (centres unmarked) [Compound A15, {2-(4-Chloro-3-fluoro-phenyl)-2-[4-(6,7-dihydro-5H-pyrrolo[2,3-d]pyrimidin-4-yl)-piperazin-1-yl]ethyl}-dimethylamine], the concentration for half-maximal inhibition (IC50) (in test [1]; on His-AKT (Full Length)) was 101 to 500 nM in each case.

Consider `NCC(c1ccc(C(F)(F)F)cc1)N1CCN(c2ncnc3c2CCCN3)CC1` (centres unmarked) [Compound A16, 2-[4-(5,6,7,8-Tetrahydro-pyrido[2,3-d]pyrimidin-4-yl)-piperazin-1-yl]-2-(4-trifluoromethyl-phenyl)-ethylamine], for which the IC50 (in test [1]; against His-AKT (Full Length)) was 25 to 100 nM throughout.

For the compound `NCC(c1ccc(Cl)cc1)N1CCN(c2ncnc3c2CCCN3)CC1` (centres unmarked) [Compound A17, 2-(4-Chloro-phenyl)-2-[4-(5,6,7,8-tetrahydro-pyrido[2,3-d]pyrimidin-4-yl)-piperazin-1-yl]-ethylamine], the IC50 in test [1] lay within 101 to 500 nM; at His-AKT (Full Length), 25 to 100 nM.

As to `CN(C)CC(c1ccc(Cl)c(F)c1)N1CCN(c2ncnc3c2CCCN3)CC1` (centres unmarked) [Compound A18, {2-(4-Chloro-3-fluoro-phenyl)-2-[4-(5,6,7,8-tetrahydro-pyrido[2,3-d]pyrimidin-4-yl)-piperazin-1-yl]-ethyl}-dimethylamine], the values for the IC50 (in test [1]; at His-AKT (Full Length)) were 101 to 500 nM and 25 to 100 nM, respectively.

As for `CN(C)CC(c1ccc(C(F)(F)F)c(F)c1)N1CCN(c2ncnc3c2CCCN3)CC1` (centres unmarked) [Compound A19, {2-(3-Fluoro-4-trifluoromethyl-phenyl)-2-[4-(5,6,7,8-tetrahydro-pyrido[2,3-d]pyrimidin-4-yl)-piperazin-1-yl]-ethyl}-dimethylamine], the IC50 (in test [1]; at His-AKT (Full Length)) was 25 to 100 nM in each case.

In the case of `CN(C)CC(c1ccc(C(F)(F)F)c(F)c1)N1CCN(c2ncnc3c2CCN3)CC1` (centres unmarked) [Compound A20, [2-[4-(6,7-Dihydro-5H-pyrrolo[2,3-d]pyrimidin-4-yl)-piperazin-1-yl]-2-(3-fluoro-4-trifluoromethyl-phenyl)-ethyl]-dimethylamine], the 50% inhibitory concentration (IC50) in test [1] was in the range of 101 to 500 nM; against His-AKT (Full Length) it was 25 to 100 nM.

Consider `NCC(c1ccc(F)cc1)N1CCN(c2ncnc3c2CCCN3)CC1` (centres unmarked) [Compound A21, 2-(4-Fluoro-phenyl)-2-[4-(5,6,7,8-tetrahydro-pyrido[2,3-d]pyrimidin-4-yl)-piperazin-1-yl]-ethylamine], for which the figures for the IC50 (in test [1]; against His-AKT (Full Length)) were more than 1000 nM and 501 to 1000 nM, respectively.

Turning to `NCC(c1ccc(C(F)(F)F)cc1)C1CCN(c2ncnc3c2CCCN3)CC1` (centres unmarked) [Compound A22, 2-[1-(5,6,7,8-Tetrahydro-pyrido[2,3-d]pyrimidin-4-yl)-piperidin-4-yl]-2-(4-trifluoromethyl-phenyl)-ethylamine], the IC50 in test [1] was in the range of 101 to 500 nM; on His-AKT (Full Length), 25 to 100 nM.

For `NCC(c1ccc(C(F)(F)F)cc1)C1CCN(c2ncnc3c2OCCN3)CC1` (centres unmarked) [Compound A23, 2-[1-(7,8-Dihydro-6H-pyrimido[5,4-b][1,4]oxazin-4-yl)-piperidin-4-yl]-2-(4-trifluoromethyl-phenyl)-ethylamine], the IC50 (in test [1]; against His-AKT (Full Length)) was more than 1000 nM in each case.

Turning to `CN(C)CC(c1ccc(F)cc1)N1CCN(c2ncnc3c2NC(=O)CN3)CC1` (centres unmarked) [Compound A24, 4-{4-[2-dimethylamino-1-(4-fluoro-phenyl)-ethyl]-piperazin-1-yl}-7,8-dihydro-5H-pteridin-6-one], the IC50 (in test [1]; on His-AKT (Full Length)) was more than 1000 nM throughout.

On to `CN(C)CC(c1cccc(F)c1)N1CCN(c2ncnc3c2NC(=O)CN3)CC1` (centres unmarked) [Compound A25, 4-{4-[2-dimethylamino-1-(3-fluoro-phenyl)-ethyl]-piperazin-1-yl}-7,8-dihydro-5H-pteridin-6-one], for which the IC50 (in test [1]; against His-AKT (Full Length)) was more than 1000 nM each time.

As a reminder, the IC50 is the concentration needed to halve the response being measured.

Values taken from patent publication US10287300B2 (Merck Patent GmbH, priority 2012, dated 2019).
